Several values for one entry are separate records, joined by “and”; a condition that tells them apart may be missing. Identical values can stand only once. Toxic doses and inconclusive results are not listed.

This passage reports T/C results from PubChem BioAssay AID256 (DTP/NCI, 2004).

The subject of this assay is CD2F1 mice, L1210 leukemia ip, survival T/C. Put plainly: NCI In Vivo Anticancer Drug Screen. Data for tumor model L1210 Leukemia (intraperitoneal) in CD2F1 (CDF1) mice. The conditions noted are these: higher = longer survival. The gist of the method:
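Vehicle-treated tumor-bearing mice served as controls (C) for compound-treated mice (T). Reported figure is T divided by C.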

As to `CCOC(=O)C(C#N)C1CNP(=O)(N(CCCl)CCCl)OC1` (stereo not given), the T/C was 98 % of control (endpoint: mean survival time, dose: 31.25 mg/kg/injection, schedule: Q01DX001 (ip), vehicle: DMSO); 98 % of control (endpoint: mean survival time, dose: 62.5 mg/kg/injection, schedule: Q01DX001 (ip), vehicle: DMSO); 100 % of control (endpoint: mean survival time, dose: 125.0 mg/kg/injection, schedule: Q01DX001 (ip), vehicle: DMSO); 100 % of control (endpoint: mean survival time, dose: 250.0 mg/kg/injection, schedule: Q01DX001 (ip), vehicle: DMSO); 112 % of control (endpoint: mean survival time, dose: 500.0 mg/kg/injection, schedule: Q01DX001 (ip), vehicle: DMSO); 115 % of control (endpoint: mean survival time, dose: 1000.0 mg/kg/injection, schedule: Q01DX001 (ip), vehicle: DMSO).

Turning to `CC(=O)Oc1ccc[nH]c1=O`, the T/C (endpoint: mean survival time, dose: 400.0 mg/kg/injection, schedule: Q01DX009 (ip), vehicle: saline) is 150 % of control and 156 % of control; the T/C (endpoint: mean survival time, dose: 600.0 mg/kg/injection, schedule: Q01DX009 (ip), vehicle: saline) is 100 % of control and 108 % of control; the T/C (endpoint: median survival time, dose: 16.7 mg/kg/injection, schedule: Q03HX027 (ip), vehicle: saline with Tween-80) was 103 % of control; the T/C (endpoint: median survival time, dose: 33.0 mg/kg/injection, schedule: Q03HX027 (ip), vehicle: saline with Tween-80) is 91 % of control and 102 % of control; the T/C (endpoint: median survival time, dose: 50.0 mg/kg/injection, schedule: Q01DX009 (ip), vehicle: saline with Tween-80) is 100 % of control and 101 % of control; the T/C (endpoint: median survival time, dose: 66.7 mg/kg/injection, schedule: Q03HX027 (ip), vehicle: saline with Tween-80) was 91 % of control and 93 % of control and 103 % of control. Also, the T/C (endpoint: median survival time, dose: 100.0 mg/kg/injection, schedule: Q01DX009 (ip), vehicle: saline with Tween-80) is 100 % of control and 102 % of control and 103 % of control; the T/C (endpoint: median survival time, dose: 133.0 mg/kg/injection, schedule: Q03HX027 (ip), vehicle: saline with Tween-80) is 102 % of control and 103 % of control and 106 % of control; the T/C (endpoint: median survival time, dose: 200.0 mg/kg/injection, schedule: Q01DX009 (ip), vehicle: saline with Tween-80) was 103 % of control (2×) and 111 % of control; the T/C (endpoint: median survival time, dose: 266.0 mg/kg/injection, schedule: Q03HX027 (ip), vehicle: saline with Tween-80) is 185 % of control.

Regarding `COc1cccc2c1CCN1C3=C(CC(OC)CC3)C(=O)CC21` (stereo not given), the T/C was 93 % of control (endpoint: mean survival time, dose: 25.0 mg/kg/injection, schedule: Q04DX002 (ip), vehicle: saline with Tween-80); 104 % of control (endpoint: mean survival time, dose: 50.0 mg/kg/injection, schedule: Q04DX002 (ip), vehicle: saline with Tween-80); 96 % of control (endpoint: mean survival time, dose: 100.0 mg/kg/injection, schedule: Q04DX002 (ip), vehicle: saline with Tween-80); 101 % of control (endpoint: mean survival time, dose: 100.0 mg/kg/injection, schedule: Q04DX003 (ip), vehicle: saline with Tween-80).

Turning to `COCC1OC(OC)C(OC)C(OC)C1OC` (stereo not given), the T/C runs as follows: (endpoint: mean survival time, dose: 100.0 mg/kg/injection, schedule: Q01DX009 (ip), vehicle: saline with Tween-80) 94 % of control; (endpoint: mean survival time, dose: 200.0 mg/kg/injection, schedule: Q01DX009 (ip), vehicle: saline with Tween-80) 102 % of control; (endpoint: mean survival time, dose: 400.0 mg/kg/injection, schedule: Q01DX009 (ip), vehicle: saline with Tween-80) 105 % of control.

Regarding `CCN(CC)C(=S)[S][Pb]([CH2]C)([CH2]C)[CH2]C`, the T/C (endpoint: mean survival time, dose: 6.25 mg/kg/injection, schedule: Q01DX009 (ip), vehicle: saline with Tween-80) is 96 % of control.

Turning to `Cc1c(N)nc([C@H](CC(N)=O)NC[C@H](N)C(N)=O)nc1C(=O)N[C@H](C(=O)N[C@H](C)[C@@H](O)[C@H](C)C(=O)N[C@H](C(=O)NCCc1nc(-c2nc(C(=O)NCCC[S+](C)C)cs2)cs1)[C@@H](C)O)C(OC1OC(CO)C(O)C(O)C1OC1OC(CO)C(O)C(OC(N)=O)C1O)c1cnc[nH]1` (stereo not given in full), the T/C is, setting by setting: (endpoint: mean survival time, dose: 2.0 mg/kg/injection, schedule: Q01DX009 (ip), vehicle: saline) 103 % of control and 106 % of control; (endpoint: mean survival time, dose: 2.0 mg/kg/injection, schedule: Q01DX009 (ip), vehicle: water) 106 % of control; (endpoint: mean survival time, dose: 4.0 mg/kg/injection, schedule: Q01DX009 (ip), vehicle: water) 110 % of control; (endpoint: mean survival time, dose: 8.0 mg/kg/injection, schedule: Q01DX009 (ip), vehicle: water) 110 % of control; (endpoint: mean survival time, dose: 12.0 mg/kg/injection, schedule: Q01DX009 (ip), vehicle: saline) 117 % of control; (endpoint: mean survival time, dose: 16.0 mg/kg/injection, schedule: Q01DX009 (ip), vehicle: water) 108 % of control. Further, the T/C is, setting by setting: (endpoint: mean survival time, dose: 32.0 mg/kg/injection, schedule: Q01DX009 (ip), vehicle: saline) 115 % of control and 104 % of control; (endpoint: mean survival time, dose: 32.0 mg/kg/injection, schedule: Q01DX009 (ip), vehicle: water) 103 % of control; (endpoint: mean survival time, dose: 64.0 mg/kg/injection, schedule: Q01DX009 (ip), vehicle: saline) 104 % of control; (endpoint: median survival time, dose: 0.5 mg/kg/injection, schedule: Q01DX009 (ip), vehicle: saline) 88 % of control; (endpoint: median survival time, dose: 0.5 mg/kg/injection, schedule: Q03HX024 (ip), vehicle: saline) 105 % of control; (endpoint: median survival time, dose: 1.0 mg/kg/injection, schedule: Q01DX009 (ip), vehicle: saline) 100 % of control and 108 % of control. Besides, the T/C (endpoint: median survival time, dose: 1.0 mg/kg/injection, schedule: Q03HX016 (ip), vehicle: saline) was 104 % of control; the T/C (endpoint: median survival time, dose: 1.0 mg/kg/injection, schedule: Q03HX024 (ip), vehicle: saline) is 105 % of control; the T/C (endpoint: median survival time, dose: 2.0 mg/kg/injection, schedule: Q03HX008 (ip), vehicle: saline) was 109 % of control; the T/C (endpoint: median survival time, dose: 2.0 mg/kg/injection, schedule: Q03HX016 (ip), vehicle: saline) is 104 % of control; the T/C (endpoint: median survival time, dose: 2.0 mg/kg/injection, schedule: Q03HX024 (ip), vehicle: saline) was 104 % of control; the T/C (endpoint: median survival time, dose: 4.0 mg/kg/injection, schedule: Q03HX008 (ip), vehicle: saline) is 104 % of control. For the same compound, the T/C (endpoint: median survival time, dose: 4.0 mg/kg/injection, schedule: Q03HX016 (ip), vehicle: saline) is 97 % of control; the T/C (endpoint: median survival time, dose: 4.0 mg/kg/injection, schedule: Q03HX024 (ip), vehicle: saline) was 104 % of control; the T/C (endpoint: median survival time, dose: 8.0 mg/kg/injection, schedule: Q03HX008 (ip), vehicle: saline) is 107 % of control; the T/C (endpoint: median survival time, dose: 8.0 mg/kg/injection, schedule: Q03HX016 (ip), vehicle: saline) is 104 % of control; the T/C (endpoint: median survival time, dose: 8.0 mg/kg/injection, schedule: Q04DX003 (ip), vehicle: saline) was 107 % of control; the T/C (endpoint: median survival time, dose: 8.0 mg/kg/injection, schedule: Q08DX002 (ip), vehicle: saline) is 105 % of control. The T/C was 103 % of control (endpoint: median survival time, dose: 16.0 mg/kg/injection, schedule: Q01DX001 (ip), vehicle: saline); 103 % of control (endpoint: median survival time, dose: 16.0 mg/kg/injection, schedule: Q03HX008 (ip), vehicle: saline); 101 % of control (endpoint: median survival time, dose: 16.0 mg/kg/injection, schedule: Q03HX016 (ip), vehicle: saline); 109 % of control (endpoint: median survival time, dose: 16.0 mg/kg/injection, schedule: Q04DX003 (ip), vehicle: saline); 105 % of control (endpoint: median survival time, dose: 16.0 mg/kg/injection, schedule: Q08DX002 (ip), vehicle: saline); 98 % of control (endpoint: median survival time, dose: 32.0 mg/kg/injection, schedule: Q01DX001 (ip), vehicle: saline). The T/C runs as follows: (endpoint: median survival time, dose: 32.0 mg/kg/injection, schedule: Q04DX003 (ip), vehicle: saline) 101 % of control; (endpoint: median survival time, dose: 32.0 mg/kg/injection, schedule: Q08DX002 (ip), vehicle: saline) 102 % of control; (endpoint: median survival time, dose: 64.0 mg/kg/injection, schedule: Q01DX001 (ip), vehicle: saline) 98 % of control; (endpoint: median survival time, dose: 64.0 mg/kg/injection, schedule: Q04DX003 (ip), vehicle: saline) 104 % of control; (endpoint: median survival time, dose: 64.0 mg/kg/injection, schedule: Q08DX002 (ip), vehicle: saline) 107 % of control; (endpoint: median survival time, dose: 128.0 mg/kg/injection, schedule: Q01DX001 (ip), vehicle: saline) 105 % of control. Moreover, the T/C is 115 % of control (endpoint: median survival time, dose: 128.0 mg/kg/injection, schedule: Q04DX003 (ip), vehicle: saline); 97 % of control (endpoint: median survival time, dose: 128.0 mg/kg/injection, schedule: Q08DX002 (ip), vehicle: saline); 107 % of control (endpoint: median survival time, dose: 256.0 mg/kg/injection, schedule: Q01DX001 (ip), vehicle: saline).

For `NNc1ccnc2[nH]ncc12`, the T/C is 106 % of control (endpoint: mean survival time, dose: 6.25 mg/kg/injection, schedule: Q01DX005 (ip), vehicle: saline with Tween-80); 103 % of control (endpoint: mean survival time, dose: 12.5 mg/kg/injection, schedule: Q01DX005 (ip), vehicle: saline with Tween-80); 101 % of control (endpoint: mean survival time, dose: 25.0 mg/kg/injection, schedule: Q01DX005 (ip), vehicle: saline with Tween-80).

On to `O=[N+]([O-])C(Br)C(Br)c1ccccc1` (stereo not given), for which the T/C runs as follows: (endpoint: mean survival time, dose: 6.25 mg/kg/injection, schedule: Q01DX001 (ip), vehicle: Klucel (hydroxypropylcellulose) (HPC)) 96 % of control; (endpoint: mean survival time, dose: 12.5 mg/kg/injection, schedule: Q01DX001 (ip), vehicle: Klucel (hydroxypropylcellulose) (HPC)) 97 % of control; (endpoint: mean survival time, dose: 25.0 mg/kg/injection, schedule: Q01DX001 (ip), vehicle: Klucel (hydroxypropylcellulose) (HPC)) 91 % of control; (endpoint: mean survival time, dose: 50.0 mg/kg/injection, schedule: Q01DX001 (ip), vehicle: Klucel (hydroxypropylcellulose) (HPC)) 102 % of control.
